Experimental data: patent US9603866B2, “Anti-fatigue composition, formulation and use thereof” (priority 2010, dated 2017)
Marks after values point to notes of the source that are not given here.

Tests used:
[1] = tested on: ICR mice; assay: Mice burden swimming test; type: in vivo; conditions: for Swimming time / Change rate of swimming time: gavage once a day, 30 days; for Swimming time: 6% body weight load; for Change rate of swimming time: vs normal control
Method: According to the Technical Standards for Testing & Assessment of Health Food issued by the Ministry of Health, P. R. China, function and biochemistry indexes assessment of the mixture of 20(S)-protopanoxadiol and lycium barbarum polysaccharide on the function of relieving physical fatigue is conducted; the detailed method is given as follows:
(§1) 1. Experimental animals: ICR mice, male, 18-22 g, provided by Shanghai Slack laboratory animal Co. Ltd., license number: SCXK (Shanghai) 2007-0005;
20(S)-protopanoxadiol: provide by Shanghai Innovative Research Center of Traditional Chinese Medicine, batch number: 20050606-1, purity: 94%; lycium barbarum polysaccharide: provided by Shanghai KangZhou Fungi Extract Co. Ltd., polysaccharide content≧30%.
To 20(S)-protopanoxadiol is added a small amount of 0.3% CMC-Na, followed by grinding to form a suspension and diluting with CMC-Na to a desired concentration. Then lycium barbarum polysaccharide is added to the 20(S)-protopanoxadiol suspension to form a composition with a certain concentration.
(§2) 3. Experimental groups: the mice are randomly divided into 19 groups by weight, 20 mice per each group; the detailed groups are as follows:
(§3) 0.2 ml/10 g of drug is administrated by gavage every day; for normal control group, 0.2 ml/10 g of distilled water is administrated by gavage every day; once a day, 30 days in total.
30 minutes after the last time of administrating drug, the end of the tail of each mouse is loaded with copper wires corresponding to 6% of its body weight, then the mouse is put in a swimming box to swim, the time from start of swimming to death of the mouse is recorded, i.e. the mice burden swimming time; the water depth in the swimming box is 30 cm or more, and water temperature is 23+1.0° C.
5. Statistical data processing: t-test is conducted to calculate P value, Jin Zhengjun formula is used to conduct combined medication analysis.
Other than the combined dosage of Experimental example 1, the range of combined dosage is enlarged to conduct multi-batch experiments. The experimental animals, drugs and method are the same as those of Experimental example 1, and the final results are shown in Table 2: […]

[2] = Animal weight during the 30-day gavage of the burden swimming study; type: in vivo, mice; conditions: gavage once a day, 30 days
Method: as §1, §2, §3

## CC(C)=CCC[C@](C)(O)[C@H]1CC[C@]2(C)[C@@H]1[C@H](O)C[C@@H]1[C@@]3(C)CC[C@H](O)C(C)(C)[C@@H]3CC[C@]12C [20(S)-protopanoxadiol]
[1]; 0.01 mg/kg
  Swimming time: 640 ± 275 s
  Change rate of swimming time: 1.5%
[1]; 0.5 mg/kg
  Swimming time: 660 ± 268 s
  Change rate of swimming time: 1.9%
[1]; 1 mg/kg
  Swimming time: 658 ± 296 s
  Change rate of swimming time: 2.2%
[1]; 5 mg/kg
  Swimming time: 640 ± 286 s
  Change rate of swimming time: 1.5%
[1]; Table 2, 0.01 mg/kg
  Swimming time change rate: 1.5%
[1]; Table 2, 0.5 mg/kg
  Swimming time change rate: 1.9%
[1]; Table 2, 1 mg/kg
  Swimming time change rate: 2.2%
[1]; Table 2, 3 mg/kg
  Swimming time change rate: 1.6%
[1]; Table 2, 6.25 mg/kg
  Swimming time change rate: 1.4%
[1]; Table 2, 12.5 mg/kg
  Swimming time change rate: 3.4%
[1]; Table 2, 25 mg/kg
  Swimming time change rate: 6.9%
[1]; Table 2, 50 mg/kg
  Swimming time change rate: 12.4* %
[1]; Table 2, single use, compared with normal control group (P>0.05)
  Effect on mice swimming time (in words): no significant effect on mice swimming time
[2]; 0.01 mg/kg
  Animal weight start/finish (finish): 21.6/39.2 g
[2]; 0.5 mg/kg
  Animal weight start/finish (finish): 21.8/38.8 g
[2]; 1 mg/kg
  Animal weight start/finish (finish): 21.7/38.7 g
[2]; 5 mg/kg
  Animal weight start/finish (finish): 21.8/38.9 g
